# Test results taken from US11787796B2, “Plasma Kallikrein inhibitors and uses thereof” (Takeda Pharmaceutical Company Limited, priority 2019, dated 2023).
# Molecular target: human activated kallikrein enzyme (Homo sapiens (Human), UniProt P03952)
# Assay: Plasma kallikrein inhibition assay with fluorogenic peptide substrate, 500 pM activated kallikrein format
# Format: biochemical
# Conditions: 500 pM activated kallikrein; 300 uM Pro-Phe-Arg-7-amido-4-methylcoumarin substrate; 30 min preincubation, 10 min reaction at RT; read-out: Primary Dose Response Assay: Average EC50
# Experimental: Example compounds were evaluated for inhibition of the human activated kallikrein enzyme in two formats of an assay employing a fluorogenic peptide substrate. In one assay format, the concentrations of reagents were as follows: 20 mM Tris pH 7.5, 1 mM EDTA, 150 mM sodium chloride, 0.1% PEG-400, 0.1% Triton X-100, […], 300 uM Pro-Phe-Arg-7-amido-4-methylcoumarin substrate. Prior to reaction initiation with substrate, enzyme and inhibitors were preincubated for 30 min at RT. After initiation with substrate, reactions were incubated for 10 min at RT and fluorescence emission at 460 nm from 380 nm excitation measured with a microplate reader. In another assay format, the concentrations of reagents were as follows: 20 mM Tris pH 7.5, 1 mM EDTA, 150 mM sodium chloride, 0.1% PEG-400, 0.1% Triton X-100, 5 pM activated kallikrein enzyme, 300 uM Pro-Phe-Arg-7-amido-4-methylcoumarin substrate. Prior to reaction initiation with substrate, enzyme and inhibitors were preincubated for 30 min at RT. After initiation with substrate, reactions were incubated for 18 h at RT and fluorescence emission at 460 nm from 380 nm excitation measured with a microplate reader.
# Table II provides the results of the assay in the format with 500 pM activated kallikrein assay.
# Table III provides comparative plasma kallikrein inhibition potency in the assay format with 500 pM activated kallikrein assay (described in detail in the preceding example).
# Sequence of human activated kallikrein enzyme (P03952 391-638): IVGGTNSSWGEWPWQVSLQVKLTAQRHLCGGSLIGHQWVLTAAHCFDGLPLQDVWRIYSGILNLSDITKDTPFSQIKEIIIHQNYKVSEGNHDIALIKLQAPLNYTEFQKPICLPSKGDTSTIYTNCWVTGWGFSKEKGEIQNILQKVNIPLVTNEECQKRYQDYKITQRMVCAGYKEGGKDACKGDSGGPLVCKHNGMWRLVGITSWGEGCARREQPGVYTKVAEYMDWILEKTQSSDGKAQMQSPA
# Sequence of human activated kallikrein enzyme (P03952 20-390 partner): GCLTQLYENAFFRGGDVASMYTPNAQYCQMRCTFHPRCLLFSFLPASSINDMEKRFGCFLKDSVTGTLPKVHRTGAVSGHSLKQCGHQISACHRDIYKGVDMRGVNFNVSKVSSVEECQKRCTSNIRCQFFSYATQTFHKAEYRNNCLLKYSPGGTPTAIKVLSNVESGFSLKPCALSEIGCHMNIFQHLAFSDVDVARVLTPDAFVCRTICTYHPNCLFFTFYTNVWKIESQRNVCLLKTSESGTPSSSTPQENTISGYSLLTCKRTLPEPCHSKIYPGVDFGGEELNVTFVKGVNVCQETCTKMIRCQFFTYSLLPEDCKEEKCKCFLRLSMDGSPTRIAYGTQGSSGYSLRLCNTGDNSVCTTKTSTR
row,EC50 [nM],SMILES
1,≤ 1,"COc1ccc(-n2cc(Cl)nn2)c(CNC(=O)c2cn(Cc3cn4cc(C5CC5)ccc4n3)nn2)c1F [Example I-1, N-(6-(4-chloro-1H-1,2,3-triazol-1-yl)-2-fluoro-3-methoxybenzyl)-1-((6-cyclopropylimidazo[1,2-a]pyridin-2-yl)methyl)-1H-1,2,3-triazole-4-carboxamide]"
2,1 to 10,"COc1ccc(-n2cnnn2)c(CNC(=O)c2cc3n(n2)CCC3c2cn3cc(C4CC4)ccc3n2)c1F (stereo not shown) [Example I-2, 4-(6-cyclopropylimidazo[1,2-a]pyridin-2-yl)-N-(2-fluoro-3-methoxy-6-(1H-tetrazol-1-yl)benzyl)-5,6-dihydro-41-pyrrolo[1,2-b]pyrazole-2-carboxamide]"
3,10 to 100,"O=C(NCc1cc(Cl)ccc1-n1cc(Cl)nn1)c1cn(Cc2cn3cc(C4CC4)ccc3n2)nn1 [Example I-3, N-(5-chloro-2-(4-chloro-1H-1,2,3-triazol-1-yl)benzyl)-1-((6-cyclopropylimidazo[1,2-a]pyridin-2-yl)methyl)-1H-1,2,3-triazole-4-carboxamide]"
4,1 to 10,"COc1ccc(-n2cnnn2)c(CNC(=O)c2nc3n(n2)CCC3c2cn3cc(C4CC4)ccc3n2)c1F (stereo not shown) [Example I-4, 7-(6-cyclopropylimidazo[1,2-a]pyridin-2-yl)-N-(2-fluoro-3-methoxy-6-(1H-tetrazol-1-yl)benzyl)-6,7-dihydro-5H-pyrrolo[1,2-b][1,2,4]triazole-2-carboxamide]"
5,10 to 100,"COc1ccnc(CNC(=O)c2cn3c(n2)CCC3c2cn3cc(C4CC4)ccc3n2)c1F (stereo not shown) [Example I-5, 5-(6-cyclopropylimidazo[1,2-a]pyridin-2-yl)-N-((3-fluoro-4-methoxypyridin-2-yl)methyl)-6,7-dihydro-5H-pyrrolo[1,2-a]imidazole-2-carboxamide]"
6,> 7100,"COc1ccnc(CNC(=O)c2cnc3n2C(c2cn4cc(C5CC5)ccc4n2)CC3)c1F (stereo not shown) [Example I-6, 5-(6-cyclopropylimidazo[1,2-a]pyridin-2-yl)-N-((3-fluoro-4-methoxypyridin-2-yl)methyl)-6,7-dihydro-5H-pyrrolo[1,2-a]imidazole-3-carboxamide]"
7,10 to 100,"COc1ccnc(CNC(=O)c2cn(Cc3cn4cc(C5CC5)ccc4n3)nn2)c1F [Example I-7, 1-((6-cyclopropylimidazo[1,2-a]pyridin-2-yl)methyl)-N-((3-fluoro-4-methoxypyridin-2-yl)methyl)-1H-1,2,3-triazole-4-carboxamide]"
8,1 to 10,"COc1ccc(F)c(CNC(=O)c2cn(Cc3cn4cc(C5CC5)cc(COCCN(C)C)c4n3)nn2)c1F [Example I-8, 1-((6-cyclopropyl-8-((2-(dimethylamino)ethoxy)methyl)imidazo[1,2-a]pyridin-2-yl)methyl)-N-(2,6-difluoro-3-methoxybenzyl)-1H-1,2,3-triazole-4-carboxamide]"
9,10 to 100,"COc1ccc(-n2cnnn2)c(CNC(=O)c2cn3c(n2)OCC3c2cn3cc(C4CC4)ccc3n2)c1F (stereo not shown) [Example I-9, 3-(6-cyclopropylimidazo[1,2-a]pyridin-2-yl)-N-(2-fluoro-3-methoxy-6-(1H-tetrazol-1-yl)benzyl)-2,3-dihydroimidazo[2,1-b]oxazole-6-carboxamide]"
10,≤ 1,"NCc1cc(C2CC2)cn2cc(Cn3cc(C(=O)NC4CCc5c4ccnc5N)nn3)nc12 (stereo not shown) [Example I-10, N-(1-amino-6,7-dihydro-5H-cyclopenta[c]pyridin-5-yl)-1-((8-(aminomethyl)-6-cyclopropylimidazo[1,2-a]pyridin-2-yl)methyl)-1H-1,2,3-triazole-4-carboxamide]"
11,> 7100,"O=C(NCc1cc2c(Cl)nccc2s1)c1cn(Cc2cn3cc(C4CC4)ccc3n2)nn1 [Example I-11, N-((4-chlorothieno[3,2-c]pyridin-2-yl)methyl)-1-((6-cyclopropylimidazo[1,2-a]pyridin-2-yl)methyl)-1H-1,2,3-triazole-4-carboxamide]"
12,1 to 10,"COc1ccc(F)c(CNC(=O)c2cn(Cc3cn4cc(C5CC5)cc(CC(C)(C)C#N)c4n3)nn2)c1F [Example I-12, 1-((8-(2-cyano-2-methylpropyl)-6-cyclopropylimidazo[1,2-a]pyridin-2-yl)methyl)-N-(2,6-difluoro-3-methoxybenzyl)-1H-1,2,3-triazole-4-carboxamide]"
13,1 to 10,"COc1ccc(F)c(CNC(=O)c2cn(Cc3cn4cc(C5CC5)cc(CN)c4n3)nn2)c1F [Example I-13, 1-((8-(aminomethyl)-6-cyclopropylimidazo[1,2-a]pyridin-2-yl)methyl)-N-(2,6-difluoro-3-methoxybenzyl)-1H-1,2,3-triazole-4-carboxamide]"
14,1 to 10,"N#Cc1cc(C2CC2)cn2cc(Cn3cc(C(=O)NC4CCc5c4ccnc5N)nn3)nc12 (stereo not shown) [Example I-14, N-(1-amino-6,7-dihydro-5H-cyclopenta[c]pyridin-5-yl)-1-((8-cyano-6-cyclopropylimidazo[1,2-a]pyridin-2-yl)methyl)-1H-1,2,3-triazole-4-carboxamide]"
15,100 to 2000,"COc1ccc(-n2cnnn2)c(CNC(=O)c2c(C)nn(Cc3cn4cc(C5CC5)ccc4n3)c2C)c1F [Example I-15, 1-((6-cyclopropylimidazo[1,2-a]pyridin-2-yl)methyl)-N-(2-fluoro-3-methoxy-6-(1H-tetrazol-1-yl)benzyl)-3,5-dimethyl-1H-pyrazole-4-carboxamide]"
16,≤ 1,"Cc1cc2c(c(N)n1)CCC2NC(=O)c1cn(Cc2cn3cc(C4CC4)ccc3n2)nn1 (stereo not shown) [Example I-16, N-(1-amino-3-methyl-6,7-dihydro-5H-cyclopenta[c]pyridin-5-yl)-1-((6-cyclopropylimidazo[1,2-a]pyridin-2-yl)methyl)-1H-1,2,3-triazole-4-carboxamide]"
17,≤ 1,"COc1ccc(-n2cnnn2)c(CNC(=O)c2cn(Cc3cn4cc(C5CC5)cc(COCCN)c4n3)nn2)c1F [Example I-17, 1-((8-((2-aminoethoxy)methyl)-6-cyclopropylimidazo[1,2-a]pyridin-2-yl)methyl)-N-(2-fluoro-3-methoxy-6-(1H-tetrazol-1-yl)benzyl)-1H-1,2,3-triazole-4-carboxamide]"
18,100 to 2000,"Nc1ncc(CNC(=O)c2cn(Cc3cn4cc(C5CC5)ccc4n3)nn2)s1 [Example I-18, N-((2-aminothiazol-5-yl)methyl)-1-((6-cyclopropylimidazo[1,2-a]pyridin-2-yl)methyl)-1H-1,2,3-triazole-4-carboxamide]"
19,2000 to 7100,"Nc1nnc(CNC(=O)c2cn(Cc3cn4cc(C5CC5)ccc4n3)nn2)o1 [Example I-19, N-((5-amino-1,3,4-oxadiazol-2-yl)methyl)-1-((6-cyclopropylimidazo[1,2-a]pyridin-2-yl)methyl)-1H-1,2,3-triazole-4-carboxamide]"
20,2000 to 7100,"Nc1nnc(CNC(=O)c2cn(Cc3cn4cc(C5CC5)ccc4n3)nn2)s1 [Example I-20, N-((5-amino-1,3,4-thiadiazol-2-yl)methyl)-1-((6-cyclopropylimidazo[1,2-a]pyridin-2-yl)methyl)-1H-1,2,3-triazole-4-carboxamide]"
21,2000 to 7100,"Nc1nnc(CNC(=O)c2cn(Cc3cn4cc(C5CC5)ccc4n3)nn2)[nH]1 [Example I-21, N-((5-amino-4H-1,2,4-triazol-3-yl)methyl)-1-((6-cyclopropylimidazo[1,2-a]pyridin-2-yl)methyl)-1H-1,2,3-triazole-4-carboxamide]"
22,≤ 1,"COc1ccc(-n2cnnn2)c(CNC(=O)c2cn3c(n2)CCC3c2cn3cc(C4CC4)ccc3n2)c1F (stereo not shown) [Example I-22, 5-(6-cyclopropylimidazo[1,2-a]pyridin-2-yl)-N-(2-fluoro-3-methoxy-6-(1H-tetrazol-1-yl)benzyl)-6,7-dihydro-5H-pyrrolo[1,2-a]imidazole-2-carboxamide]"
23,≤ 1,"Nc1nccc2c1CCC2NC(=O)c1cn(Cc2cn3cc(C4CC4)ccc3n2)nn1 (stereo not shown) [Example I-23, N-(1-amino-6,7-dihydro-5H-cyclopenta[c]pyridin-5-yl)-1-((6-cyclopropylimidazo[1,2-a]pyridin-2-yl)methyl)-1H-1,2,3-triazole-4-carboxamide]"
24,2000 to 7100,"COc1ccc(-n2cnnn2)c(CNC(=O)c2cnc3n2C(c2cn4cc(C5CC5)ccc4n2)CC3)c1F (stereo not shown) [Example I-24, 5-(6-cyclopropylimidazo[1,2-a]pyridin-2-yl)-N-(2-fluoro-3-methoxy-6-(1H-tetrazol-1-yl)benzyl)-6,7-dihydro-5H-pyrrolo[1,2-a]imidazole-3-carboxamide]"
25,≤ 1,"COc1ccc(-n2cnnn2)c(CNC(=O)c2cn(Cc3cn4cc(C5CC5)cc(CN)c4n3)nn2)c1F [Example I-25, 1-((8-(aminomethyl)-6-cyclopropylimidazo[1,2-a]pyridin-2-yl)methyl)-N-(2-fluoro-3-methoxy-6-(1H-tetrazol-1-yl)benzyl)-1H-1,2,3-triazole-4-carboxamide]"

# Same assay, conditions: comparative compounds (Table III); 500 pM activated kallikrein format; read-out: Primary Dose Response Assay: Average EC50
row,EC50 [nM],SMILES
1,10 to 100,O=C(NCc1ncn2ccc(Cl)c(F)c12)c1cn(Cc2ccc3nccnc3c2)nn1
2,10 to 100,O=C(NCc1ncn2ccc(Cl)c(F)c12)c1cn(Cc2cn3ccccc3n2)nn1
3,> 7100,NC(=O)c1cnn(Cc2cn3cc(C4CC4)ccc3n2)c1
